Legend:
Hepatitis C virus = test: Antiviral activity against Hepatitis C virus genotype 1b in human HuH7 cells assessed as inhibition of viral replication after 72 hrs by luciferase reporter assay; assay type: functional, cell-based, Hepacivirus hominis; conditions: Huh-7, 72 h
[1] = Cytotoxicity against human HuH7 cells; assay type: cell-based, Huh-7
[2] = Therapeutic index, ratio of CC50 for human HuH7 cells to EC50 for Hepatitis C virus genotype 1b in human HuH7 cells; assay type: cell-based, Huh-7; conditions: read-out: Ratio CC50/EC50

EC50 (Hepatitis C virus) | SMILES | CC50 [1] | selectivity ratio [2]
> 50 µM | C[C@@]1(O)[C@H](O)[C@@H](CO)O[C@H]1c1cnc2c(N)nc(N)nn12 | > 100 µM | –
0.17 µM | C#Cc1cc([C@@H]2O[C@H](CO)[C@@H](O)[C@@]2(C)O)n2ncnc(N)c12 | 0.93 µM | –
– | C[C@@]1(O)[C@H](O)[C@@H](CO)O[C@H]1c1cnc2c(N)ncnn12 | 26 µM | –
> 50 µM | C[C@@]1(O)[C@H](O)[C@@H](CO)O[C@H]1c1ccc2c(N)nc(N)nn12 | > 100 µM | –
0.26 µM | C[C@@]1(O)[C@H](O)[C@@H](CO)O[C@H]1c1cc(Cl)c2c(N)ncnn12 | 6.5 µM | –
– | C[C@@]1(O)[C@H](O)[C@@H](CO)O[C@H]1c1ccc2c(N)ncnn12 | > 100 µM | –
3.1 µM | C[C@@]1(O)[C@H](O)[C@@H](CO)O[C@H]1c1cc(F)c2c(N)ncnn12 | > 100 µM | > 30
1.8 µM | C[C@@]1(O)[C@H](O)[C@@H](CO)O[C@H]1c1cc(-c2ncco2)c2c(N)ncnn12 | 35.7 µM | –
> 50 µM | C[C@@]1(O)[C@H](O)[C@@H](CO)O[C@H]1c1cnc2c(N)nc(Cl)nn12 | > 100 µM | –
0.99 µM | C[C@@]1(O)[C@H](O)[C@@H](CO)O[C@H]1c1cc(C#N)c2c(N)ncnn12 | 22.1 µM | –
0.69 µM | C[C@@]1(O)[C@H](O)[C@@H](CO)O[C@H]1c1cc(-c2ncc[nH]2)c2c(N)ncnn12 | 27.1 µM | –
> 50 µM | C[C@@]1(O)[C@H](O)[C@@H](CO)O[C@H]1c1cnc2c(N)nc(F)nn12 | > 100 µM | –
0.0062 µM | C[C@@]1(O)[C@H](O)[C@@H](CO)O[C@H]1c1cc(C(N)=O)c2c(N)ncnn12 | 0.37 µM | –
> 50 µM | C[C@@]1(O)[C@H](O)[C@@H](CO)O[C@H]1c1c(F)cc2c(N)ncnn12 | > 100 µM | –
